# Measurements: patent publication US11883398B2, “Dipeptidylpeptidase 4 inhibition enhances lymphocyte trafficking, improving both naturally occurring tumor immunity and immunotherapy” (INSTITUT PASTEUR, priority 2015, dated 2024)
# What was measured:
# MEK1 induced skin tumors = conditions: Arwert and colleagues; cited from earlier work
# CXCR3-expressing T cells = assay: Model of trafficking into the peritoneal cavity; assay type: in vivo, mouse
# Protocol: WT and Dpp4^−/− mice were intraperitoneally injected with PBS or 1 μg of mCXCL10, mCXCL9 or mCCL5 (all from Peprotech). At the indicated time points, mice were sacrificed and peritoneal cells were collected in 10 mL of PBS. For thioglycollate induced peritonitis mice were intraperitoneally injected with thioglycollate 3% weight/volume, 24 hours before collection of peritoneal cells.
# Fluorochrome-conjugated anti-mouse CD3 (clone145-2C11), CD8 (clone 53-6.7), CD4 (clone RM4-5), NK1.1 (clone PK136), CD49b (clone DX5), CD25 (clone PC61), B220 (clone RA3-6B2), Ly6G (clone 1A8), Ly6C (clone AL-21), CD11 b (clone M1/70) Siglec-F (clone E50-2440), MHCII IA-IE (clone M5/114.15.2), CD45.2 (clones 56-0454-82 and 109830), Thy-1.1 (clone HIS51), Thy-1.2 (clone 53-2.1), DPP4 (clone H194-112) and CXCR3 (clone CXCR3-173) were from eBiosciences and BD Biosciences. Fluorochrome conjugated anti-F4/80 (clone CI:A3-1) was from AbDserotec. For exclusion of dead cells, Live/Dead fixable Aqua reagent (Invitrogen) was used. For all staining protocols, cell suspensions were incubated with mouse CD16/CD32 Fc Blocking antibodies (BD Biosciences) prior to antibody. For analysis of peritoneal cavity infiltrates, cells were washed and incubated with a cocktail of fluorochrome-conjugated antibodies. For analysis of tumor infiltrates, B16F10 tumors were collected at the indicated time points and digested in PBS supplemented with 2.7 mg/ml of Collagenase (Roche) and 23U/ml of Deoxyribonuclease I (Invitrogen) for 30 min, 37° C. Digestion was terminated by adding PBS supplemented with 2% FCS and 5 mM EDTA (Gibco). Tumor cell suspensions were obtained after filtration over a 70 μm cell strainer. For determination of cell numbers, the […] COUNTING BEADS reagent (Invitrogen) was used. Flow cytometry was performed using a BD LSRFORTESSA or a BD CANTO cytometer, with DIVA software. Computer analysis was done with FLOWJO (Treestar).
# DPP9 = DPP9 (Homo sapiens, UniProt Q86TI2); conditions: Verspohl 2012; Huan et al. 2015; cited from earlier work
# Sequence of DPP9 (Q86TI2 whole entry, species assumed): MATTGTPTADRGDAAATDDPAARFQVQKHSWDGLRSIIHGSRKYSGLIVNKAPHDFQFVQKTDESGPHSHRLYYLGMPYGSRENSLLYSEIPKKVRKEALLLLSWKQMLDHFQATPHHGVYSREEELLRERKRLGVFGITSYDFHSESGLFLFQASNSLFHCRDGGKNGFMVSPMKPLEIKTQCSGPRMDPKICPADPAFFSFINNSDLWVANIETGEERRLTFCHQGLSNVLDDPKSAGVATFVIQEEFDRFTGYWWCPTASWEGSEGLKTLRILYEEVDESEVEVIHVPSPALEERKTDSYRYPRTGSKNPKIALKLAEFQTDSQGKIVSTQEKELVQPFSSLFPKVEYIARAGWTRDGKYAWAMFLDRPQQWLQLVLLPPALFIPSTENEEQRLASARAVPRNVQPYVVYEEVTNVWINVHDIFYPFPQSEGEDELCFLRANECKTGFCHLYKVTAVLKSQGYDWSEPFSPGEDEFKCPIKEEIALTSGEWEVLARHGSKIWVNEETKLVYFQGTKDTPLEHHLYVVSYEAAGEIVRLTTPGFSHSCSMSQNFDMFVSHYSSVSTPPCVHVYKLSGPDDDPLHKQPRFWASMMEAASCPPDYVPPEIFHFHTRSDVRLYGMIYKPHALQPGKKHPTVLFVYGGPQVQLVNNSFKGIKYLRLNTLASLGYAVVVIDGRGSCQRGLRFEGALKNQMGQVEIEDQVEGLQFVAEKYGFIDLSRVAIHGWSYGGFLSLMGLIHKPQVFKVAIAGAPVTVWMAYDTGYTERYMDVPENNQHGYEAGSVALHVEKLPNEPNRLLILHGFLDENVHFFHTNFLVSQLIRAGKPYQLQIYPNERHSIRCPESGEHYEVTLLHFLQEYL
# B16F10 melanoma = assay: Subcutaneous B16F10 melanoma tumor growth in vivo; design: species or system mouse
# Protocol: Mice used were 7-12 weeks old. […] B16F10 and […] (Ovalbumin-expressing B16F10 cells, gift from C. Reis e Sousa) tumor cells were cultured in DMEM (Gibco) supplemented with 10% FCS (PAA), 0.1 mM non-essential amino acids, 1 mM sodium pyruvate, 10 mM Hepes, 70 μM beta-mercaptoethanol and 23 μg/ml gentamycin (all from Gibco). CT26 colon carcinoma cells were cultured in RPMI (Gibco) supplemented as described for DMEM. Cells for injections were passaged 1-2 times after thawing, before use. WT and genetically modified mice were subcutaneously injected with 2×10^5 B16 or 5×10^5 CT26 cells in the shaved right flank. […] For blocking of chemokine and chemokine receptors, WT mice were intraperitoneally injected with 100 μg of hamster a-mCXCR3 (clone CXCR3-173, BioLegend), 100 μg of hamster α-mCCR5 (clone HM-CCR5, BioLegend), 50 μg of rat anti-mCXCL10 (clone 134013, R&D systems) and 20 μg of rat-α-mCXCR4 (clone 2B11/CXCR4, BD Biosciences) or with respective isotype antibodies (hamster IgG (clone HTK888, BioLegend, used as control for mCXCR3 and mCCR5 blockage); rat IgG2a (clone 54447, R&D systems, used as control for mCXCL10 blockade) and rat IgG2b (clone A95-1, BD Biosciences, used as control for mCXCR4 blockade). […] For CXCL10 neutralization, antibodies were injected on day 2, 5, 8 and 11 after tumor cell injection. For immunotherapy protocols, mice were intraperitoneally injected with 100 μg of mouse α-CTLA-4 (clone 9D9, Bioxcell), 200 μg of PD1 (clone RMP1-14, Bioxcell), a combination of 100 μg of α-CTLA-4+200 μg of a-PD1 or control isotypes (100 μg […] and 200 μg rat IgG2a (clone 2A3), both from Bioxcell) on day 3, 6 and 9 after tumor cell implantation. For adoptive cell transfer experiments, Pmel-1 Thy-1.1^+Thy-1.1^+, Cxcr3^-/- Thy-1.1^+Thy-1.2^+ Pmel-1 or OT1 splenocytes were activated ex-vivo, by incubation with 1 nM of human gp100 (for Pmel-1 cells) or […] (for OT1 cells) peptides for 1h at room temperature with agitation. Splenocytes were then washed and resuspended in R10 supplemented with 30U/mL of recombinant human IL-2. CD8^+ T cells were expanded for 6-7 days before used. […] For analysis of tumor growth, activated OT1 cells were injected intravenously (1×10^5 cells per mouse) into gender matched tumor-bearing mice, 3 days after tumor cell injection. Tumor height and width were measured with a caliper and tumor volume was calculated (Elliptical volume=width^2×height×0.523). […] Lungs with more than 100 metastatic nodules were defined as 100.
smiles,measurement,setting,value
N[C@@H](CC(=O)N1CCn2c(nnc2C(F)(F)F)C1)Cc1cc(F)c(F)cc1F [sitagliptin],malignant transformation,MEK1 induced skin tumors,delays malignant transformation
same,recruitment of polymorphonuclear cells into the peritoneal cavity,"CXCR3-expressing T cells; after intraperitoneal mCXCL10, control or sitagliptin-fed mice",did not show differential recruitment
same,CXCR3 expression on peripheral blood T cells,"CXCR3-expressing T cells; after intraperitoneal mCXCL10, sitagliptin vs control",unaltered CXCR3 expression
same,mCXCL10-mediated infiltration of T cells into the peritoneal cavity,"CXCR3-expressing T cells; intraperitoneal mCXCL10, sitagliptin vs control chow",enhanced mCXCL10-mediated infiltration of T cells
same,CXCR3 plasma membrane expression on migrating T cells,"CXCR3-expressing T cells; peritoneal cavity after mCXCL10 injection, sitagliptin vs control",lower
same,effect on DPP9 activity,DPP9,no effect
same,B16F10 tumor growth in Cxcl10-/- mice,"B16F10 melanoma; Cxcl10-/- mice, sitagliptin vs control",the delayed tumor growth achieved by DPP4 inhibition was absent
same,B16F10 tumor growth in Cxcr3-/- mice,"B16F10 melanoma; Cxcr3-/- mice, sitagliptin vs control",abrogated the delayed tumor growth
same,B16F10 tumor growth in Dpp4-/- mice,"B16F10 melanoma; Dpp4-/- mice, sitagliptin vs control chow",did not influence the kinetics of melanoma growth
same,B16F10 tumor growth in Rag2-/- mice,"B16F10 melanoma; Rag2-/- mice, sitagliptin vs control",the beneficial effects of DPP4 inhibition were lost
same,B16F10 tumor growth,"B16F10 melanoma; WT mice, sitagliptin vs control chow",reduced tumor growth
same,B16F10 tumor growth with CXCR4 blocking in vivo,"B16F10 melanoma; anti-mCXCR4 antibody, sitagliptin vs control",did not impact sitagliptin-mediated inhibition of tumor growth
same,B16F10 tumor growth in wild-type animals treated with CXCL10 blocking antibodies,B16F10 melanoma; loss of sitagliptin effect as in Cxcl10-/- mice,confirmed
same,growth of established B16F10 tumors,"B16F10 melanoma; sitagliptin chow started 3, 5 or 7 days after tumor implantation",delay in tumor growth if sitagliptin was administrated within 5 days after tumor cell implantation
